From PubChem BioAssay (NCI) come the findings set out here.

Assay in all cases: NCI tumour cell line growth inhibition, 48 h
The subject of assay [1] is RXF 393 renal.
Assay [2] has as its system CCRF-CEM leukemia.
For assay [3], the system named is OVCAR-3 ovarian.
Assay [4] deals with HL-60(TB) leukemia.
Assay [5] concerns SF-295 CNS.
Assay [6] relates to NCI-H226 lung.
Assay [7] has as its system SNB-19 CNS.
Assay [8] concerns MALME-3M melanoma.
The subject of assay [9] is PC-3 prostate.
Assay [10] deals with HOP-62 NSCLC.
Assay [11] has as its system K-562 leukemia.
For assay [12], the system named is SK-MEL-5 melanoma.

Values joined by “and” are separate entries in the source; they are usually repeats but may differ in a detail not shown here. Identical values can stand only once.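 How tested: cells in 96-well plates exposed to compound for 48 hours at five concentrations. GI50 = concentration required for 50% inhibition of growth. TGI marks complete inhibition of growth.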

For `C/C(=C/CC[C@](C)(OC1OC(CO)C(O)C(O)C1OC1OC(C)C(O)C(O)C1O)[C@H]1CC[C@]2(C)[C@@H]1CC[C@@H]1[C@@]3(C)CC[C@H](O)C(C)(C)[C@@H]3C[C@H](O)[C@]12C)CO` (some centres undefined), the TGI in assay [1], in [2], in assay [3], in assay [4], in [5] and in [6] was greater than 100 µM in each case. Further, the TGI in assay [7], in assay [8], in assay [9], in assay [10], in [11] and in [12] was greater than 100 µM in each case.
For the molecule `CCCCOP(=O)(OCCCC)C(NS(=O)(=O)c1ccccc1)(C(=O)OCC)C(F)(F)F` (centres undefined), the TGI was 53 µM in assay [1]; 72.5 µM in assay [2]; 59.5 µM in [3]; 47.8 µM in assay [4]; greater than 100 µM in assay [5]; 74.9 µM in assay [6]. The TGI is greater than 100 µM in assay [7]; 45.4 µM in [8]; greater than 100 µM in [9]; 61.4 µM in assay [10]; 59.9 µM in assay [11]; 33.9 µM in [12].
On to `Cc1cc(C)c2c(=O)n(CC(O)CN3CCN(c4ncccn4)CC3)sc2n1` (centres undefined), for which the TGI is 33.6 µM in assay [1]; greater than 100 µM in [2]; 34.5 µM in [3]; 38.9 µM in assay [4]; greater than 100 µM in assay [5]; greater than 100 µM in [6]. Further, the TGI in assay [7] is greater than 100 µM; in [8] it was 37.5 µM; in assay [9] it was 32.8 µM; in assay [10], 42 µM; in assay [11], greater than 100 µM; in assay [12], 35.5 µM.
For `CO/C=C(/C(=O)OC)c1ccccc1[C@H]1C[C@@H]1c1ccc(OC)cc1`, the TGI in assay [1] was greater than 100 µM; in [2] it was greater than 100 µM; in [3], 49 µM; in assay [4], 62.4 µM; in assay [5], 46.3 µM; in [6], greater than 100 µM. The TGI is greater than 100 µM in assay [7]; 46.8 µM in assay [8]; greater than 100 µM in assay [9]; 98 µM in assay [10]; greater than 100 µM in assay [11]; 26.2 µM in [12].
Consider `CCOC(=O)Cn1c(=O)c2cc(C)cc3c(Cl)nc4c(OC)c(OC)cc1c4c32`, for which the TGI in assay [1], in assay [2], in [3], in [4], in assay [5] and in assay [6] was greater than 100 µM each time. Moreover, the TGI in [7], in assay [8], in assay [9], in [10], in [11] and in assay [12] was greater than 100 µM in each case.
Regarding `Nc1nc(-c2ccccc2)cc(-c2ccc(F)cc2)c1-c1ccc(Cl)cc1`, the TGI in assay [1], in [2], in assay [3], in [4], in assay [5] and in assay [6] was greater than 100 µM in each case. In addition, the TGI in assay [7], in assay [8], in assay [9], in assay [10], in [11] and in [12] was greater than 100 µM throughout.
For the molecule `COC(=O)c1ccc2c(c1)CCN2C(=O)c1cc2c(cc1Br)OCO2`, the TGI was 4.72 µM in assay [1]; 50 µM and > 100 µM in assay [2]; 3.99 µM and 1.43 µM in assay [3]; 10.2 µM and 17.1 µM in assay [4]; 50 µM and > 100 µM in assay [5]; 4.44 µM in [6]. The TGI in assay [7] is 12.8 µM and > 100 µM; in assay [8] it was 50 µM; in [9], 5.52 µM and 20.6 µM; in assay [10], 50 µM and > 100 µM; in assay [11] it was 50 µM and > 100 µM; in assay [12], 5.5 µM and 14.1 µM. Moreover, the GI50 is 0.742 µM in assay [2]; 0.363 µM in assay [3]; 0.31 µM in assay [4]; 0.683 µM in assay [5]; 1.31 µM in assay [7]; 0.824 µM in assay [11]. Moreover, the GI50 in [12] was 0.581 µM.
With `O=c1[nH]/c(=C/c2cccs2)c(=O)[nH]/c1=C/c1ccc(OCc2ccccc2)cn1`, the TGI in [1] worked out at 3.88 µM; in assay [2] it was 4.34 µM; in assay [3], 0.0382 µM; in assay [4], 0.244 µM; in [5], 0.119 µM; in assay [6], 33.3 µM. Further, the TGI was greater than 46.2 µM in assay [7]; 0.726 µM in assay [8]; greater than 44.4 µM in [9]; 8.47 µM in [10]; 27.4 µM in assay [11]; greater than 62.6 µM in [12].
As for `COc1ccc(NC(=O)c2cc(NC(=O)/C=C/c3ccccc3)c(OC)c(OC)c2)cc1`, the TGI in assay [1] was greater than 100 µM; in assay [2], greater than 100 µM; in assay [3], greater than 100 µM; in [4], 45.4 µM; in [5], greater than 100 µM; in assay [6] it was greater than 100 µM. Also, the TGI in assay [7] was greater than 100 µM; in assay [8] it was 99.6 µM; in assay [9], greater than 100 µM; in assay [10], greater than 100 µM; in [11] it was greater than 100 µM; in assay [12] it was greater than 100 µM.
For `CC(CCC(=O)O)(c1cc(Br)c(O)c(Br)c1)c1cc(Br)c(O)c(Br)c1`, the TGI in assay [1], in [2], in assay [3], in [4], in [5] and in assay [6] was greater than 100 µM in each case. Also, the TGI was greater than 100 µM in [7]; greater than 100 µM in assay [8]; greater than 100 µM in assay [9]; greater than 100 µM in [10]; greater than 100 µM in assay [11]; 88.3 µM in assay [12].
Turning to `COc1cc2[nH]c(=O)[nH]c2c2c(C)c[nH]c12`, the TGI in [1], in assay [2], in assay [3], in assay [4], in [5] and in assay [6] was greater than 100 µM each time. Also, the TGI in assay [7], in assay [8], in assay [9], in assay [10], in assay [11] and in assay [12] was greater than 100 µM in each case.
